Experimental data published in ChEMBL document CHEMBL5584347, “Development of Nitric Oxide Releasing Oxoisoaporphines with Antidepressant Activities by Simultaneously Regulating MAO-A and SERT” (J Med Chem, 2024).
Active and inactive are the calls of the source. The calls are words filed in the database; no cut-off is given here.

Key:
Mus musculus [1] = assay: Antidepressant activity in reserpine induced depressive mouse model assessed as 5-HT level in brain at 5 mg/kg preadministered with reserpine for 3 days followed by compound addition from day 4 to 10 by LC-MS analysis (reference value: 186.46 ng/ml); type: functional; details: time 7 day
Danio rerio [2] = assay: Antidepressant activity in reserpine-induced depressive zebrafish model assessed as increase in time spend in upper part at 0.5 to 1 uM preadministered with reserpine for 40 mins followed by compound administration and measured after 7 days by novel tank test; type: functional, organism-based; details: dose 0.5-1 µM, time 7.0 day
[3] = Toxicity in C57 mouse assessed as necrosis in heart at 5 to 10 mg/kg administered continuously for 2 weeks by H and E staining based analysis; type: organism-based; details: in vivo, 336 h, dose 5-10 mg/kg
Mus musculus [4] = assay: Antidepressant activity in chronic unpredictable mild stress induced depressive C57 mouse model assessed as reduction in neuronal cell damage in hippocampus at 5 to 10 mg/kg administered continuously for 2 weeks post 5 weeks of chronic unpredictable mild stress by H and E staining based analysis; type: functional, organism-based; details: dose 5-10 mg/kg
Danio rerio [5] = assay: Antidepressant activity in reserpine-induced depressive zebrafish model assessed as increase in total distance traveled at 0.5 to 1 uM preadministered with reserpine for 40 mins followed by compound administration and measured after 7 days by novel tank test; type: functional, organism-based; details: dose 0.5-1 µM, time 7.0 day
PC-12 [6] = assay: Neuroprotective activity against corticosterone-induced cell injury in rat PC-12 cells assessed as increase in nitric oxide content at 0.2 uM by absorbance based assay; type: functional
Mus musculus [7] = assay: Antidepressant activity in chronic unpredictable mild stress induced depressive C57 mouse model assessed as decrease in SERT expression in brain at 5 to 10 mg/kg administered continuously for 2 weeks post 5 weeks of chronic unpredictable mild stress by Western blot analysis; type: functional, organism-based; details: dose 5-10 mg/kg
Mus musculus [8] = assay: Antidepressant activity in chronic unpredictable mild stress induced depressive C57 mouse model assessed as increase in number of upright movements at 5 to 10 mg/kg administered continuously for 2 weeks post 5 weeks of chronic unpredictable mild stress by open field test; type: functional, organism-based; details: dose 5-10 mg/kg
[9] = Toxicity in C57 mouse assessed as effect on spleen morphology at 5 to 10 mg/kg administered continuously for 2 weeks by H and E staining based analysis; type: organism-based; details: in vivo, 336 h, dose 5-10 mg/kg
Mus musculus [10] = assay: Antidepressant activity in chronic unpredictable mild stress induced depressive C57 mouse model assessed as increase in total distance traveled at 5 to 10 mg/kg administered continuously for 2 weeks post 5 weeks of chronic unpredictable mild stress by open field test; type: functional, organism-based; details: dose 5-10 mg/kg
Mus musculus [11] = assay: Antidepressant activity in chronic unpredictable mild stress induced depressive C57 mouse model assessed as reduction in resting time at 5 to 10 mg/kg administered continuously for 2 weeks post 5 weeks of chronic unpredictable mild stress by tail suspension test; type: functional, organism-based; details: dose 5-10 mg/kg
PC-12 [12] = assay: Neuroprotective activity against corticosterone-induced cell injury in rat PC-12 cells assessed as increase in cell viability at 0.01 to 1 uM incubated for 24 hrs by CCK8 assay; type: functional, cell-based; details: dose 0.01-1 µM
[13] = Toxicity in C57 mouse assessed as effect on heart morphology at 5 to 10 mg/kg administered continuously for 2 weeks by H and E staining based analysis; type: organism-based; details: in vivo, 336 h, dose 5-10 mg/kg
[14] = Toxicity in C57 mouse assessed as effect on lung structure at 5 to 10 mg/kg administered continuously for 2 weeks by H and E staining based analysis; type: organism-based; details: in vivo, 336 h, dose 5-10 mg/kg
Mus musculus [15] = assay: Antidepressant activity in chronic unpredictable mild stress induced depressive C57 mouse model assessed as increase in movement at 5 to 10 mg/kg administered continuously for 2 weeks post 5 weeks of chronic unpredictable mild stress by open field test; type: functional, organism-based; details: dose 5-10 mg/kg
[16] = Toxicity in C57 mouse assessed as effect on lung morphology at 5 to 10 mg/kg administered continuously for 2 weeks by H and E staining based analysis; type: organism-based; details: in vivo, 336 h, dose 5-10 mg/kg

## O=C1c2ccccc2-c2nccc3cc(OCCCO[N+](=O)[O-])cc1c23
Mus musculus [1]
  Activity: 508.39 ng/mL
Danio rerio [2]
  Activity: Active
[3]
  Activity: Non-Toxic
Mus musculus [4]
  Activity: Active
Danio rerio [5]
  Activity: Active
PC-12 [6]
  Activity: Active
Mus musculus [7]
  Activity: Active
Mus musculus [8]
  Activity: Active
[9]
  Activity: Non-Toxic
Mus musculus [10]
  Activity: Active
Mus musculus [11]
  Activity: Active
PC-12 [12]
  Activity: Active
[13]
  Activity: Non-Toxic
[14]
  Activity: Non-Toxic
Mus musculus [15]
  Activity: Active
[16]
  Activity: Non-Toxic
